Laboratory results taken from US20220340598A1, “PYRAZOLOPYRIDINONE COMPOUNDS” (Janssen Pharmaceutica NV, priority 2017, published 2022).

Columns and labels:
[1] = biological target: T1, NIH/3T3 cells overexpressing FGFR3 WT-TACC3 fusion protein (Homo sapiens, UniProt P22607); experiment: NIH/3T3 FGFR3 WT-TACC3 cell proliferation assay; format: cell-based; details: 72-hr incubation, CellTiter Glo; read-out: NIH/3T3 FGFR3 WT-TACC3 CTG (IC50)
T1 construct: fused on or other part: Q9Y6A5 (Transforming acidic coiled-coil-containing protein 3)
Experimental: NIH/3T3 FGFR3 WT-TACC3 Cell Proliferation Assay
(§1) In day 1, 90 μL of cell suspension (NIH/3T3 cells overexpressing FGFR3 WT-TACC3 fusion protein) (total 30,000 cells per well in growth medium (DMEM containing 1% Glutamax, 10% FBS and 1% Pen/Strep)) was seeded in a 96-well plate and then incubated overnight at 37° C. and 5% CO2. In day 2, 10 μL of growth medium containing 10-fold stock solution of testing compound was added into cell cultures (9 dose points with 4× serial dilution, starting with 10 μM, 0.1% DMSO final). After 72-hr incubation at 37° C. and 5% CO2, in day 5 a volume of 50 μL CellTiter Glo (CTG) reagent was added into cell-containing 96-well plate and the plate was incubated at room temperature for 10 minutes before RLUs (relative light unit) were measured on a microplate reader with luminescence detection module. The RLU value was normalized to survival % and concentration-response curve was plotted using Prism to calculate IC50 (M), pIC50 (−log IC50) and HillSlope value.

[2] = biological target: T2, human FGFR3 V555M enzyme (cytoplasmic domain carrying V555M mutation) (Homo sapiens, UniProt P22607, V555M); experiment: FGFR3 V555M mobility shift assay (enzymatic assay); format: biochemical; details: 30 μM ATP, 45 minutes at 30° C., Caliper EZ reader II
T2 construct: human FGFR3 V555M enzyme (cytoplasmic domain carrying V555M mutation, from Carna Biosciences)
Experimental: FGFR3 V555M Mobility Shift Assay (Enzymatic Assay)
(§2) In a final reaction volume of 25 μL, 0.04 ng/μL human FGFR3 V555M enzyme (cytoplasmic domain carrying V555M mutation, from Carna Biosciences) was incubated with 30 μM ATP, 1 μM FL-peptide 30 substrate and 250 nL of testing compound (1% DMSO final) in assay buffer (100 mM HEPES pH 7.4, 10 mM MgCl2, 0.003% Brij35, 1 mM DTT). After incubation for 45 minutes at 30° C. the reaction was stopped with 10 μL of 0.5M EDTA pH 8.0, and then 25 μL of reaction mixture was transferred to reading plate and measured on Caliper EZ reader II.

[3] = biological target: T3, NIH/3T3 cells overexpressing FGFR3 V555M-TACC3 fusion protein (Homo sapiens, UniProt P22607, V555M, cells depend on it); experiment: NIH/3T3 FGFR3 V555M-TACC3 cell proliferation assay; format: cell-based; details: 72-hr incubation, CellTiter Glo; read-out: NIH/3T3 FGFR3 V555M-TACC3 CTG (IC50)
T3 construct: fused on or other part: Q9Y6A5 (Transforming acidic coiled-coil-containing protein 3)
Experimental: NIH/3T3 FGFR3 V555M-TACC3 Cell Proliferation Assay
as §1, with “V555M-TACC3” for “WT-TACC3”

[4] = biological target: T4, human FGFR3 wild type enzyme (cytoplasmic domain) (Homo sapiens, UniProt P22607); experiment: FGFR3 wild type mobility shift assay (enzymatic assay); format: biochemical; details: 75 μM ATP, 50 minutes at 30° C., Caliper EZ reader II
T4 construct: human FGFR3 wild type enzyme (cytoplasmic domain, from Carna Biosciences)
Experimental: FGFR3 Wild Type Mobility Shift Assay (Enzymatic Assay)
as §2, with “FGFR3 wild type” for “FGFR3 V555M”, “(cytoplasmic domain,” for “(cytoplasmic domain carrying V555M mutation,”, “with 75” for “with 30”, “for 50” for “for 45”

T4 sequence (P22607 397-806): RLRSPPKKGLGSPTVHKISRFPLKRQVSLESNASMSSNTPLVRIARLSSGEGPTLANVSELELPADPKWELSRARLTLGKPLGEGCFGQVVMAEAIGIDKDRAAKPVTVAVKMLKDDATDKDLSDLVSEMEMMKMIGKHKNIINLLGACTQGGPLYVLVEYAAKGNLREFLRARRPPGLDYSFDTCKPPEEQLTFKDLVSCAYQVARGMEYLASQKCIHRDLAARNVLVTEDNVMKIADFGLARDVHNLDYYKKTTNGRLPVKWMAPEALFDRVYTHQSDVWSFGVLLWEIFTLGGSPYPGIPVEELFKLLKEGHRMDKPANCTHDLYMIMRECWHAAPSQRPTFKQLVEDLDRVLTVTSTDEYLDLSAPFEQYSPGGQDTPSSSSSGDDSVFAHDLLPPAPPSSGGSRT
T2 sequence (P22607 397-806 V555M): as the sequence (P22607 397-806) above, with V159M counted along it
T1 sequence (P22607 whole entry, change not shown, the tested form may be a part): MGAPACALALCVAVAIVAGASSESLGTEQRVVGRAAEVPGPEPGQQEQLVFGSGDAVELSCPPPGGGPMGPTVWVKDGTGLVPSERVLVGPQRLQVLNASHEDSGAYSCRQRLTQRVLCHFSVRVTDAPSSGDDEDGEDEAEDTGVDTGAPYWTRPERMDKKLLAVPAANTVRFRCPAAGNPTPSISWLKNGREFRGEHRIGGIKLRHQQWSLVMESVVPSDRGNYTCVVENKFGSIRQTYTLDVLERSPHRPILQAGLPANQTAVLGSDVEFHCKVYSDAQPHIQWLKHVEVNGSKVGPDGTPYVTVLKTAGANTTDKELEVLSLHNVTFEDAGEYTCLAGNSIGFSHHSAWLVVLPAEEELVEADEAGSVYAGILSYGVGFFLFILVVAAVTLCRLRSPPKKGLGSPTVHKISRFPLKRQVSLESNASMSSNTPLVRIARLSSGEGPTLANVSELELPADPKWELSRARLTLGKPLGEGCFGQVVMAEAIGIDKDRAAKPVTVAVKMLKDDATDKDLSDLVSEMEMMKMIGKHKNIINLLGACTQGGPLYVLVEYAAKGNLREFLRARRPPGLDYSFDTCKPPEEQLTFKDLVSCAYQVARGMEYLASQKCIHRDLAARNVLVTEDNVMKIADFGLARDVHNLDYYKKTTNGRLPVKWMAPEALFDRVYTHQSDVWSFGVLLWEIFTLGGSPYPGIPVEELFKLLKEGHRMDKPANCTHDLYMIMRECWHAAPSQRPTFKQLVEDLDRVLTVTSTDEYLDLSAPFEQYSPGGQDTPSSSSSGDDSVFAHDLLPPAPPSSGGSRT
T3 sequence (P22607 whole entry V555M, the tested form may be a part): as the sequence (P22607 whole entry, change not shown, the tested form may be a part) above, with V555M counted along it

Structure (SMILES)	GI50 [1]	IC50 [2]	GI50 [3]	IC50 [4]
CC(C)C(Nc1c(-c2nc3cnc(N(C)C)cc3[nH]2)c(=O)[nH]c2cn(C)nc12)c1ncccn1 (single isomer, unassigned) [Compound 11, (S*)-6-(6-(dimethylamino)-1H-imidazo[4,5-c]pyridin-2-yl)-2-methyl-7-((2-methyl-1-(pyrimidin-2-yl)propyl)amino)-2H-pyrazolo[4,3-b]pyridin-5(4H)-one]	67.1 nM	1.05 nM	50.7 nM	6.77 nM
COc1cc2nc(-c3c(NC(c4ncccn4)C(C)C)c4nn(C)cc4[nH]c3=O)[nH]c2cc1OC (single isomer, unassigned) [Compound 27, (S*)-6-(5,6-dimethoxy-1H-benzo[d]imidazol-2-yl)-2-methyl-7-((2-methyl-1-(pyrimidin-2-yl)propyl)amino)-2H-pyrazolo[4,3-b]pyridin-5(4H)-one]	40.2 nM	1.14 nM	31.2 nM	4.82 nM
CC(C)[C@H](Nc1c(-c2nc3cnccc3[nH]2)c(=O)[nH]c2cn(C)nc12)c1ncccn1 (single isomer, unassigned) [Compound 24, (S*)-6-(1H-imidazo[4,5-c]pyridin-2-yl)-2-methyl-7-((2-methyl-1-(pyrimidin-2-yl)propyl)amino)-2H-pyrazolo[4,3-b]pyridin-5(4H)-one]	166 nM	2.5 nM	117 nM	13.5 nM
CCn1cc2[nH]c(=O)c(-c3nc4cc(OC)c(OC)cc4[nH]3)c(NC(C)c3cocn3)c2n1 (single isomer, unassigned) [Compound 5C, (R*)-6-(5,6-Dimethoxy-1H-benzo[d]imidazol-2-yl)-2-ethyl-7-((1-(oxazol-4-yl)ethyl)amino)-2H-pyrazolo[4,3-b]pyridin-5(4H)-one]		315 nM		978 nM
CC[C@H](Nc1c(-c2nc3ccc(OC)cc3[nH]2)c(=O)[nH]c2cn(C)nc12)c1ncccn1 (single isomer, unassigned) [Compound 16, (S*)-6-(6-Methoxy-1H-benzo[d]imidazol-2-yl)-2-methyl-7-((1-(pyrimidin-2-yl)propyl)amino)-2H-pyrazolo[4,3-b]pyridin-5(4, H)-one]		342 nM		1360 nM
COCC(Nc1c(-c2nc3cc(OC)c(OC)cc3[nH]2)c(=O)[nH]c2cn(C)nc12)c1ncccn1 (single isomer, unassigned) [Compound 25, (S*)-6-(5,6-dimethoxy-1H-benzo[d]imidazol-2-yl)-7-((2-methoxy-1-(pyrimidin-2-yl)ethyl)amino)-2-methyl-2H-pyrazolo[4,3-b]pyridin-5(4H)-one]	357 nM	2.65 nM	359 nM	15.4 nM
C[C@H](Nc1c(-c2nc3ccc(F)cc3[nH]2)c(=O)[nH]c2cn(C)nc12)c1ncccn1 [Compound 28, (S)-6-(6-Fluoro-1H-benzo[d]imidazol-2-yl)-2-methyl-7-((1-(pyrimidin-2-yl)ethyl)amino)-2H-pyrazolo[4,3-b]pyridin-5(4H)-one]	73.8 nM		13.3 nM	7.14 nM
CCn1cc2[nH]c(=O)c(-c3nc4ccc(OC)cc4[nH]3)c(N[C@H](C)c3cocn3)c2n1 (single isomer, unassigned) [Compound 34, (R*)-2-ethyl-6-(6-methoxy-H-benzo[d]imidazol-2-yl)-7-((1-(oxazol-4-yl)ethyl)amino)-2H-pyrazolo[4,3-b]pyridin-5(4H)-one]		32.8 nM		39.5 nM
COc1cnc2nc(-c3c(NC(c4ncccn4)C(C)C)c4nn(C)cc4[nH]c3=O)[nH]c2c1 (single isomer, unassigned) [Compound 40, (S*)-6-(6-methoxy-1H-imidazo[4,5-b]pyridin-2-yl)-2-methyl-7-((2-methyl-1-(pyrimidin-2-yl)propyl)amino)-2,4-dihydro-5H-pyrazolo[4,3-b]pyridin-5-one]	81 nM		78.5 nM	
CCOc1cc2nc(-c3c(N[C@@H](C)c4ncccn4)c4nn(CC)cc4[nH]c3=O)[nH]c2cc1OCC [Compound 52, (S)-6-(5,6-diethoxy-1H-benzo[d]imidazol-2-yl)-2-ethyl-7-((1-(pyrimidin-2-yl)ethyl)amino)-2H-pyrazolo[4,3-b]pyridin-5(4H)-one]	16.1 nM		18.8 nM	
COCCOc1cc2[nH]c(-c3c(NC(c4ncccn4)C(C)C)c4nn(C)cc4[nH]c3=O)nc2cc1OC (single isomer, unassigned) [Compound 36, (S*)-6(5-methoxy-6-(2-methoxyethoxy)-1H-benzo[d]imidazol-2-yl)-2-methyl-7-((2-methyl-1-(pyrimidin-2-yl)propyl)amino)-2H-pyrazolo[4,3-b]pyridin-5(4H)-one]	25 nM		21.5 nM	7.75 nM
CCOc1cc2[nH]c(-c3c(N[C@@H](C)c4ncccn4)c4nn(CC)cc4[nH]c3=O)nc2cc1OC [Compound 8, (S)-6-(6-ethoxy-5-methoxy-1H-benzo[d]imidazol-2-yl)-2-ethyl-7-((1-(pyrimidin-2-yl)ethyl)amino)-2H-pyrazolo[4,3-b]pyridin-5(4H)-one]	19.1 nM		23 nM	
COc1cc(OC)c2nc(-c3c(N[C@@H](C)c4ncccn4)c4nn(C)cc4[nH]c3=O)[nH]c2c1 [Compound 29, (S)-6-(4,6-Dimethoxy-1H-benzo[d]imidazol-2-yl)-2-methyl-7-((1-(pyrimidin-2-yl)ethyl)amino)-2H-pyrazolo[4,3-b]pyridin-5(4H)-one]	16 nM		20.8 nM	
CCC(Nc1c(-c2nc3cc(OC)c(OC)cc3[nH]2)c(=O)[nH]c2cn(CC)nc12)c1ncccn1 (single isomer, unassigned) [Compound 45, (R*)-6-(5,6-dimethoxy-1H-benzo[d]imidazol-2-yl)-2-ethyl-7-((1-(pyrimidin-2-yl)propyl)amino)-2H-pyrazolo[4,3-b]pyridin-5(4H)-one]		347 nM		602 nM
COc1cc2[nH]c(-c3c(N[C@@H](C)c4ncccn4)c4nn(C)cc4[nH]c3=O)nc2cn1 [Compound 30, (S)-6-(6-methoxy-1H-imidazo[4,5-c]pyridin-2-yl)-2-methyl-7-((1-(pyrimidin-2-yl)ethyl)amino)-2H-pyrazolo[4,3-b]pyridin-5(4H)-one]	11.1 nM		7.88 nM	
CCn1cc2[nH]c(=O)c(-c3nc4ccc(OCCOC)cc4[nH]3)c(N[C@@H](C)c3ncccn3)c2n1 [Compound 54, (S)-2-ethyl-6-(6-(2-methoxyethoxy)-1H-benzo[d]imidazol-2-yl)-7-((1-(pyrimidin-2-yl)ethyl)amino)-2H-pyrazolo[4,3-b]pyridin-5(4H)-one]	11.5 nM		21.6 nM	
CCC(Nc1c(-c2nc3cc(OC)c(OC)cc3[nH]2)c(=O)[nH]c2cn(CC)nc12)c1ncccn1 (single isomer, unassigned) [Compound 44, (S*)-6-(5,6-dimethoxy-1H-benzo[d]imidazol-2-yl)-2-ethyl-7-((1-(pyrimidin-2-yl)propyl)amino)-2H-pyrazolo[4,3-b]pyridin-5(4H)-one]	31.7 nM		51.6 nM	
